Measurements reported in ChEMBL document CHEMBL1140483, “High dopamine transporter selectivity can be displayed by remarkably simple non-nitrogen containing inhibitors” (Bioorg Med Chem Lett, 2007).
pKi: −log10 of the molar value.

Columns and labels:
[1] = species on record: Homo sapiens; experiment: Selectivity for human DAT over human SERT
[2] = species on record: Homo sapiens; experiment: Selectivity for human DAT over human NET
[3] = target: Sodium-dependent serotonin transporter (Homo sapiens, UniProt P31645); experiment: Displacement of [125I]RTI55 from human SERT transfected in COS1 cells; format: cell-based, COS-1
Sequence of Sodium-dependent serotonin transporter (P31645 whole entry): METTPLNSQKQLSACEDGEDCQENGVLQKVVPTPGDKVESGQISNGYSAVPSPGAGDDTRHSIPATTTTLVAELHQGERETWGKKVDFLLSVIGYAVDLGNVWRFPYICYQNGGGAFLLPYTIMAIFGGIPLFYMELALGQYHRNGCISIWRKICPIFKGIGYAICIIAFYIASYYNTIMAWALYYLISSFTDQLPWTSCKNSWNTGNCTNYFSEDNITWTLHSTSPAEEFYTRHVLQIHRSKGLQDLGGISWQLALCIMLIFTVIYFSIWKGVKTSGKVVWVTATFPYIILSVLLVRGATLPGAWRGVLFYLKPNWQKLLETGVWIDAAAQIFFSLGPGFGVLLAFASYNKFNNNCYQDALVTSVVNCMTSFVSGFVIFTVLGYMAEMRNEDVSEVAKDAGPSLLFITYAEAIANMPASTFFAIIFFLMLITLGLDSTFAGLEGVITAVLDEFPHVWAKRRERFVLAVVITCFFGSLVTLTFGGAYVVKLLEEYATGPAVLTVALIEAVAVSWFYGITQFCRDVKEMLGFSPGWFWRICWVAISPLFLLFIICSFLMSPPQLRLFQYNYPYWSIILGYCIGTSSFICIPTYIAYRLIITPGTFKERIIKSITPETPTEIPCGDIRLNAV

[4] = target: Sodium-dependent noradrenaline transporter (Homo sapiens, UniProt P23975); experiment: Displacement of [125I]RTI55 from human NET transfected in COS1 cells; format: cell-based, COS-1
Sequence of Sodium-dependent noradrenaline transporter (P23975 whole entry): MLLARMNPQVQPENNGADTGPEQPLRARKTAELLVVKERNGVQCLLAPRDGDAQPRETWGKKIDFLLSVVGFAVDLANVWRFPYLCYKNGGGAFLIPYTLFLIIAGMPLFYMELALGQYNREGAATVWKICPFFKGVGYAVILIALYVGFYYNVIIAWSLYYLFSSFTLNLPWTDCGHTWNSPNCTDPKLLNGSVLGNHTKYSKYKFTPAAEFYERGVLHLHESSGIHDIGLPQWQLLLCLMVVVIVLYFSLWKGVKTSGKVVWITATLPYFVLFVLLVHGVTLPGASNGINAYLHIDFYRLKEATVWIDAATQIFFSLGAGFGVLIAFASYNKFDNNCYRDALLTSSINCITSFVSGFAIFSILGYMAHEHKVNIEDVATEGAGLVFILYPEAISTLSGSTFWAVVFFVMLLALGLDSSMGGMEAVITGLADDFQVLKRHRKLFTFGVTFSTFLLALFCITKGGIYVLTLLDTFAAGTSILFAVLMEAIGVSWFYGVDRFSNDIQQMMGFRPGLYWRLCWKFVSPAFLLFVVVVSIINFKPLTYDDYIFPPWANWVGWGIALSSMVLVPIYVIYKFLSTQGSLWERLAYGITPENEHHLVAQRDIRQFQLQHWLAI

[5] = target: Sodium-dependent dopamine transporter (Homo sapiens, UniProt Q01959); experiment: Displacement of [125I]RTI55 from human DAT transfected in COS1 cells; format: cell-based, COS-1
Sequence of Sodium-dependent dopamine transporter (Q01959 whole entry): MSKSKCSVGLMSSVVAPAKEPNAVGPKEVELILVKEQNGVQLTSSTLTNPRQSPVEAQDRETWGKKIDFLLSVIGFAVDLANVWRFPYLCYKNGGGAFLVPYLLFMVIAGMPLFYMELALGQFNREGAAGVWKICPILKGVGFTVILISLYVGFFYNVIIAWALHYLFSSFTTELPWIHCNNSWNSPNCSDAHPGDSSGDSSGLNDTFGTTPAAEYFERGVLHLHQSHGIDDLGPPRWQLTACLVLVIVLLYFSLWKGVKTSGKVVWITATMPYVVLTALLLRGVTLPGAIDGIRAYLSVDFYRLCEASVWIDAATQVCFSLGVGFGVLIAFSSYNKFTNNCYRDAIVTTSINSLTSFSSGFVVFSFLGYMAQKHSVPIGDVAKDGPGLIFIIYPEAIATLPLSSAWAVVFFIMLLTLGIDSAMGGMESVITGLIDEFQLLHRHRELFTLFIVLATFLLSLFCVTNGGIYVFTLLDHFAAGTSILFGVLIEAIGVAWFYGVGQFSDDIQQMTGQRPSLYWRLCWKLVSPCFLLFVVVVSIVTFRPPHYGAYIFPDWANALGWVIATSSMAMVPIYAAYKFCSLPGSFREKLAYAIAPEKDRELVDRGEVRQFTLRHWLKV

SMILES | Ratio Ki [1] | Ratio Ki [2] | pKi [3] | pKi [4] | pKi [5]
O=C(OCCF)C1=C(c2ccc(Cl)c(Cl)c2)CCC1 | 780 | 12 | 3.41 | 5.24 | 6.30
O=C(Oc1ccccc1)C1=C(c2ccc(Cl)c(Cl)c2)CCC1 | > 2900 | 500 | < 3.30 | 4.07 | 6.77
COC(=O)C1=C(c2ccc(Cl)c(Cl)c2)CCC1 | 410 | 6 | – | – | –
O=C(OCc1ccco1)C1=C(c2ccc(Cl)c(Cl)c2)CCC1 | 16 | 41 | 4.62 | 4.21 | 5.82
O=C(C1=C(c2ccc(Cl)c(Cl)c2)CCC1)N1CCOCC1 | > 45 | 27 | < 3.30 | 3.52 | 4.96
O=C(NCc1ccco1)C1=C(c2ccc(Cl)c(Cl)c2)CCC1 | 800 | 400 | 4.62 | 4.92 | 7.52
CON(C)C(=O)C1=C(c2ccc(Cl)c(Cl)c2)CCC1 | 84 | 39 | 3.27 | 3.60 | 5.19
CC(C)OC(=O)C1=C(c2ccc(Cl)c(Cl)c2)CCC1 | 190 | 10 | 3.30 | 4.59 | 5.59
O=C(OCc1cccs1)C1=C(c2ccc(Cl)c(Cl)c2)CCC1 | 2300 | 110 | 3.04 | 4.38 | 6.40

The next lines start with the values.

Ratio Ki [1] | Ratio Ki [2] | pKi [3] | pKi [4] | pKi [5] | SMILES
170 | 30 | 4.30 | 5.05 | 6.52 | O=C(OCCO)C1=C(c2ccc(Cl)c(Cl)c2)CCC1
> 7100 | 110 | < 3.30 | 5.10 | 7.15 | O=C(NCCF)C1=C(c2ccc(Cl)c(Cl)c2)CCC1
> 600 | 11 | < 3.30 | 5.04 | 6.08 | CONC(=O)C1=C(c2ccc(Cl)c(Cl)c2)CCC1
> 110 | 5.6 | < 3.00 | 4.30 | 5.05 | O=C(NC1CCC1)C1=C(c2ccc(Cl)c(Cl)c2)CCC1
9 | 7 | 3.28 | 3.39 | 4.24 | O=C(C1=C(c2ccc(Cl)c(Cl)c2)CCC1)N1CCCC1
> 2300 | 150 | < 3.30 | 4.48 | 6.66 | Cc1ccccc1OC(=O)C1=C(c2ccc(Cl)c(Cl)c2)CCC1
> 17000 | > 1700 | < 3.00 | < 4.00 | 7.22 | Cc1cccc(OC(=O)C2=C(c3ccc(Cl)c(Cl)c3)CCC2)c1
790 | 130 | 3.96 | 4.74 | 6.85 | O=C(NCc1cccs1)C1=C(c2ccc(Cl)c(Cl)c2)CCC1
3.2 | 2.2 | 3.52 | 3.68 | 4.03 | CCN(CC)C(=O)C1=C(c2ccc(Cl)c(Cl)c2)CCC1
> 83 | 11 | < 3.00 | 3.89 | 4.92 | O=C(OC1CCCCC1)C1=C(c2ccc(Cl)c(Cl)c2)CCC1
– | 50 | < 3.00 | 3.77 | 5.47 | O=C(OCC(F)(F)F)C1=C(c2ccc(Cl)c(Cl)c2)CCC1
